Peptide text beside a SMILES is read from it.
Target: T1, 14-3-3ε heterodimerization (Homo sapiens, UniProt P62258)
T1 construct: endogenous in cells; host or cells: SCC12B.2
T1 sequence (P62258 1-255): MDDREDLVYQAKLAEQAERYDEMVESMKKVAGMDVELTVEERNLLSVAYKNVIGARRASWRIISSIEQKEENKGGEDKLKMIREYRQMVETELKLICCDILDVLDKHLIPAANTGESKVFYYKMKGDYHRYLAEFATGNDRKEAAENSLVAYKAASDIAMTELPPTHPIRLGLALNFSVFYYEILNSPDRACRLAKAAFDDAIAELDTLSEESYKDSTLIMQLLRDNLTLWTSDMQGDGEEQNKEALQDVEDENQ
Assay: Co-immunoprecipitation / immunoblot of 14-3-3ε heterodimerization
Type: cell-based
Details: SCC12B.2 cells, 20 μM, 48 hours, vs vehicle
Protocol: Co-Immunoprecipitation was performed using a Dynabeads Protein G Immunoprecipitation kit (Life Technologies, Carlsbad, Calif., USA). Beads were coupled to antibodies targeting 14-3-3ε (Fisher Scientific, Waltham, Mass., USA) or Akt (Thermo Fisher) at a ratio of 7 μg of antibody for every 1 mg of beads according to the manufacturers protocol. SCC12B.2 cells were treated with vehicle (20 mM Tris buffer, pH 7.5) or fresh ES1P2 targeting peptide daily at the IC50 concentration for 48 hours in Opti-MEM I Reduced Serum Medium (Invitrogen) and collected by trypsinization. […]
Protein was collected by either standard whole-cell lysis using ice-cold radioimmunoprecipitation assay (RIPA) lysis buffer supplemented with protease (Roche Life Scientific) and phosphatase inhibitors (NaF, Na3VO4) or by nuclear/cytosolic extraction using the NE-PER Nuclear and Cytoplasmic Protein Extraction Reagent Kit according to the manufacturer's protocol (Pierce, Rockford, Ill., USA). […] Protein concentration was assessed with the Bradford assay. […] Bands were detected using horseradish peroxidase-conjugated secondary antibodies (IgG mouse or rabbit) (Cell Signaling) and visualized using western lightning plus chemiluminescent reagent (MidSci, Valley Park, Mo., USA) and signal read on a Chemidoc XRS Molecular Imager (Bio-Rad Laboratories, Hercules, Calif., USA).

14-3-3ε heterodimerization: reduces 14-3 3ε heterodimerization
SMILES: NCCCC[C@H](NC(=O)[C@H](Cc1c[nH]c2ccccc12)NC(=O)[C@H](Cc1ccc(O)cc1)NC(=O)[C@@H](N)Cc1c[nH]c2ccccc12)C(N)=O [ES1P2, Trp-Tyr-Trp-Lys-NH2] (H-WYWK-NH2)
